Assay results taken from BindingDB's records for doi:10.1021/jm0110901 (Carlsberg Laboratory, 2002).

molecular target: Cysteine protease B CPB2.8ΔCTE (Leishmania mexicana); test: Inhibition of Leishmania mexicana Cysteine protease B (CPB2.8deltaCTE) was obtained in a solution-phase assay

Molecule | Ki
C[C@H](NC[C@H](Cc1ccccc1)NC(=O)[C@H](CCCCN)NC(=O)[C@H](CCCCN)NC(=O)[C@@H](N)CC(=O)O)C(=O)N[C@@H](CC1CCCCC1)C(=O)NCC(=O)N[C@@H](CCCCN)C(=O)O [6-Amino-2-(2-{2-[2-(2-{6-amino-2-[6-amino-2-(2-amino-3-carboxy-propionylamino)-hexanoylamino]-hexanoylamino}-3-phenyl-propylamino)-propionylamino]-3-cyclohexyl-propionylamino}-acetylamino)-hexanoic acid] | 31.1 µM
CC[C@H](C)[C@H](NC(=O)[C@H](C)NC[C@H](Cc1ccccc1)NC(=O)[C@H](CCCNC(=N)N)NC(=O)[C@H](Cc1c[nH]c2ccccc12)NC(=O)[C@@H](N)CCSC)C(=O)N[C@H](C(=O)N[C@H](C(=O)O)[C@@H](C)O)[C@@H](C)CC [2-(2-{2-[2-(2-{2-[2-(2-Amino-4-methylsulfanyl-butyrylamino)-3-(1H-indol-3-yl)-propionylamino]-5-guanidino-pentanoylamino}-3-phenyl-propylamino)-propionylamino]-3-methyl-pentanoylamino}-3-methyl-pentanoylamino)-3-hydroxy-butyric acid] | 6.5 µM
CC[C@H](C)[C@H](N)C(=O)N[C@H](C(=O)NCC(=O)N[C@H](CN[C@@H](Cc1ccc(O)cc1)C(=O)N[C@H](C(=O)N[C@H](C(=O)N[C@@H](C)C(=O)O)C(C)C)[C@@H](C)CC)Cc1ccccc1)[C@@H](C)O | 53.3 µM
H-AIWYWAAV-OH [2-(2-{2-[2-[2-[2-[2-(2-Amino-propionylamino)-3-methyl-pentanoylamino]-3-(1H-indol-3-yl)-propionylamino]-3-(4-hydroxy-phenyl)-propionylamino]-3-(1H-indol-3-yl)-propionylamino]-propionylamino}-propionylamino)-3-methyl-butyric acid] | 44.7 µM
C[C@H](NC[C@H](CCCCN)NC(=O)[C@H](Cc1ccccc1)NC(=O)[C@H](CCCCN)NC(=O)[C@@H](N)CC(=O)O)C(=O)N[C@@H](CC1CCCCC1)C(=O)NCC(=O)N[C@@H](CCCCN)C(=O)O [6-Amino-2-(2-{2-[2-(6-amino-2-{2-[6-amino-2-(2-amino-3-carboxy-propionylamino)-hexanoylamino]-3-phenyl-propionylamino}-hexylamino)-propionylamino]-3-cyclohexyl-propionylamino}-acetylamino)-hexanoic acid] | 0.6 µM
CC[C@H](C)[C@H](N)C(=O)N[C@@H](CC(=O)O)C(=O)NCC(=O)N[C@@H](CCCCN)CN[C@@H](CC(C)C)C(=O)N[C@@H](Cc1ccc(O)cc1)C(=O)N[C@@H](C)C(=O)N1CCC[C@H]1C(=O)O [1-{2-[2-[2-(6-Amino-2-{2-[2-(2-amino-3-methyl-pentanoylamino)-3-carboxy-propionylamino]-acetylamino}-hexylamino)-4-methyl-pentanoylamino]-3-(4-hydroxy-phenyl)-propionylamino]-propionyl}-pyrrolidine-2-carboxylic acid] | 5.3 µM
CC[C@H](C)[C@H](NC(=O)[C@H](CC(N)=O)NC(=O)[C@H](Cc1ccccc1)NC[C@H](CCCCN)NC(=O)[C@H](CC1CCCCC1)NC(=O)[C@H](CC1CCCCC1)NC(=O)[C@@H](N)CC1CCCCC1)C(=O)N[C@@H](CCCCN)C(=O)O [6-Amino-2-(2-{2-[2-(6-amino-2-{2-[2-(2-amino-3-cyclohexyl-propionylamino)-3-cyclohexyl-propionylamino]-3-cyclohexyl-propionylamino}-hexylamino)-3-phenyl-propionylamino]-3-carbamoyl-propionylamino}-3-methyl-pentanoylamino)-hexanoic acid] | 6.3 µM
CC[C@H](C)[C@H](NC(=O)[C@H](CC(C)C)NC[C@H](Cc1ccccc1)NC(=O)CNC(=O)[C@H](CCCCN)NC(=O)[C@@H](N)CC(=O)O)C(=O)N[C@H](C(=O)N[C@@H](CCCCN)C(=O)O)C(C)C | 18.6 µM
CC[C@H](C)[C@H](NC(=O)[C@H](C)NC(=O)[C@@H](N)CC1CCCCC1)C(=O)N[C@H](CN[C@@H](Cc1ccc(O)cc1)C(=O)N[C@@H](CCSC)C(=O)N[C@@H](Cc1ccc(O)cc1)C(=O)N[C@@H](Cc1ccc(O)cc1)C(=O)O)Cc1ccccc1 | 0.1 µM
NCCCC[C@H](NC(=O)[C@H](CC(N)=O)NC(=O)[C@H](Cc1ccccc1)NC(=O)[C@H](CO)NC[C@H](CCCN=C(N)N)NC(=O)[C@H](Cc1ccccc1)NC(=O)[C@H](CCCCN)NC(=O)[C@@H]1CCCN1)C(=O)O [6-Amino-2-[2-(2-{2-[2-(2-{6-amino-2-[(pyrrolidine-2-carbonyl)-amino]-hexanoylamino}-3-phenyl-propionylamino)-5-guanidino-pentylamino]-3-hydroxy-propionylamino}-3-phenyl-propionylamino)-3-carbamoyl-propionylamino]-hexanoic acid] | 8.8 µM
CC[C@H](C)[C@H](NC[C@H](Cc1ccccc1)NC(=O)[C@H](Cc1c[nH]cn1)NC(=O)[C@H](CCCCN)NC(=O)[C@@H](N)CC(=O)O)C(=O)N[C@H](C(=O)N[C@H](C(=O)N[C@@H](CCCCN)C(=O)O)C(C)C)[C@@H](C)CC | 20 µM

The remaining molecules from weak to strong by Ki, led by results:

Ki | Molecule
100 µM | CC[C@H](C)[C@H](N)C(=O)N[C@H](C(=O)N[C@H](C(=O)N[C@@H](CCCCN)CN[C@@H](C)C(=O)N[C@H](C(=O)N[C@@H](CC1CCCCC1)C(=O)N[C@H](C(=O)O)[C@@H](C)O)[C@@H](C)CC)[C@@H](C)O)C(C)C [2-(2-{2-[2-(6-Amino-2-{2-[2-(2-amino-3-methyl-pentanoylamino)-3-methyl-butyrylamino]-3-hydroxy-butyrylamino}-hexylamino)-propionylamino]-3-methyl-pentanoylamino}-3-cyclohexyl-propionylamino)-3-hydroxy-butyric acid]
71.6 µM | CC[C@H](C)[C@H](NC(=O)[C@H](CC(C)C)NC[C@H](CCCNC(=N)N)NC(=O)CNC(=O)[C@H](CC1CCCCC1)NC(=O)[C@@H](N)C(C)C)C(=O)N[C@@H](Cc1cnc[nH]1)C(=O)N[C@@H](CC(=O)O)C(=O)O [2-[2-{2-[2-(2-{2-[2-(2-Amino-3-methyl-butyrylamino)-3-cyclohexyl-propionylamino]-acetylamino}-5-guanidino-pentylamino)-4-methyl-pentanoylamino]-3-methyl-pentanoylamino}-3-(3H-imidazol-4-yl)-propionylamino]-succinic acid]
30 µM | CC[C@H](C)[C@H](NC[C@H](Cc1ccccc1)NC(=O)[C@H](Cc1cnc[nH]1)NC(=O)[C@H](CCC(N)=O)NC(=O)[C@@H](N)CC(=O)O)C(=O)N[C@H](C(=O)N[C@H](C(=O)N[C@@H](CCC(N)=O)C(=O)O)C(C)C)[C@@H](C)CC
13 µM | CC[C@H](C)[C@H](NC(=O)[C@H](Cc1ccccc1)NC[C@H](Cc1ccccc1)NC(=O)[C@@H](NC(=O)[C@@H]1CCCN1C(=O)[C@@H](N)CCCCN)C(C)C)C(=O)N[C@@H](CC1CCCCC1)C(=O)O
10.1 µM | CC[C@H](C)[C@H](NC(=O)[C@H](CCSC)NC(=O)[C@H](CO)NC(=O)[C@H](CC1CCCCC1)NC[C@H](Cc1ccccc1)NC(=O)[C@H](CC1CCCCC1)NC(=O)[C@H](CO)NC(=O)[C@@H](N)CC(=O)O)C(=O)O
1.1 µM | CSCC[C@H](NC(=O)[C@H](Cc1ccc(O)cc1)NC[C@H](Cc1ccccc1)NC(=O)[C@H](CC(C)C)NC(=O)[C@H](C)NC(=O)[C@@H](N)CC1CCCCC1)C(=O)N[C@@H](Cc1ccc(O)cc1)C(=O)N[C@@H](Cc1ccc(O)cc1)C(=O)O [ChaALF(CH2NH)YMYY]
1 µM | CC(C)C[C@H](NC[C@H](Cc1ccccc1)NC(=O)[C@H](Cc1cnc[nH]1)NC(=O)[C@H](CCCCN)NC(=O)[C@@H](N)CC(=O)O)C(=O)N[C@@H](CC(C)C)C(=O)N[C@H](C(=O)N[C@@H](CCCCN)C(=O)O)C(C)C [6-Amino-2-{2-[2-(2-{2-[2-[6-amino-2-(2-amino-3-carboxy-propionylamino)-hexanoylamino]-3-(3H-imidazol-4-yl)-propionylamino]-3-phenyl-propylamino}-4-methyl-pentanoylamino)-4-methyl-pentanoylamino]-3-methyl-butyrylamino}-hexanoic acid]
